In patent publication US8183242B2, “Aminopyrimidine compounds and their salts, process for preparation and pharmaceutical use thereof” (priority 2004, dated 2012):
Marks after values point to notes of the source that are not given here.

Key:
[1] = test system: transplant tumor of human granulocytic leukemia K562; test: Test Example 2: therapeutic effect on naked mice with transplant tumor of human granulocytic leukemia K562; settings: for Body weight before dissection d0 / TV x ± SD d0: d0 = grouping and first administration; for Body weight before dissection dn / TV x ± SD dn: dn = day 21; for CR: complete extinction (complete resolution) of tumor: end of experiment (Day 21), mice with CR/group; for mice in which the tumor was extinct: 75 mg/kg oral gavage once per day
Method: Animals were allowed to acclimatize the environment for one week, and then the animals were inoculated subcutaneously human leukemia K562 cells. When the tumors have grown to a volume of 100-300 mm^3, the animals were randomly grouped (d0). The naked mice were administered by oral gavage. […] The animals were administered once per day for 21 days. Measured the volume of the tumors 2-3 times per week and weighed the animals followed by recording the data. The formula for calculating the volume of tumor (V): V=½×a×b^2, wherein a represents the length and b represents the width.
The mice were continuously administered by oral gavage once per day for 21 days.

[2] = test system: human acute promyelocytic leukemia HL-60 cell; test: MTT assay, inhibition of proliferation of HL-60 cells cultured in vitro (Bcr-Abl negative control model); assay type: cell-based; settings: drug 48 h
Method: HL-60: human acute promyelocytic leukemia Cell. The expression of Bcr-Abl tyrosine kinase is negative.
(§1) Cells were grown in a medium containing 10% fetal bovine serum and were kept in the logarithmic growth phase.
(§2) The cells were pre-incubated in an incubator at 37° C. in 5% CO2 for 24 hours. The drug with 6 to 8 different concentrations was added and treated continuously for 48 h.
(§3) After the treatment of the drug, take photos by a phase contrast microscope. Then MTT treatment solution was added into each well and after 4 hours lysed the cells by DMSO. The OD values for each well were determined by using Plarstar ELIASA.
Concentration setting: 5-8 concentrations within the range of 0.001-10 μM were set, and each concentration is set in triplicate.

[3] = test system: human chronic myelogenous leukemia K562 cell (expressing P210 Bcr-Abl tyrosine kinase); test: MTT assay, inhibition of proliferation of K562 cells cultured in vitro
Method: as §1, §2, §3

[4] = test system: transplant tumor of human granulocytic leukemia K562; test: Test Example 3: therapeutic effect of HH-GV-678 and Gleevec on naked mice with transplant tumor of human granulocytic leukemia K562; settings: for Body weight before dissection d0 / TV x ± SD d0: d0 = grouping and first administration; for Body weight before dissection dn / TV x ± SD dn: dn = day 21; for CR: complete resolution: end of experiment, mice with CR/group
Excerpt: Animals were allowed to acclimatize the environment for one week, and then the animals were inoculated subcutaneously human leukemia K562 cells. When the tumors have grown to a volume of 100-300 mm^3, the animals were randomly grouped (d0). […] Measured the volume of the tumors 2-3 times per week and weighed the animals followed by recording the data. The formula for calculating the volume of tumor (V): V =1/2×a×b^2, wherein a represents the length and b represents the width.

[5] = 75 mg/kg oral gavage once per day 21 days
[6] = 150 mg/kg oral gavage once per day 21 days
[7] = 150 mg/kg each time, oral gavage twice per day 21 days
[8] = 37.5 mg/kg oral gavage once per day 21 days

CS(=O)(=O)O.Cc1ncc(NC(=O)c2ccc(CN3CCN(C)CC3)c(Cl)c2)cc1Nc1nccc(-c2cccnc2)n1 [HH-GV-E, 4-((4-methylpiperazin-1-yl)methyl)-N-[6-methyl-5-[[4-(pyrid-3-yl)pyrimidin-2-yl]amino]pyrid-3-yl]-3-chloro-benzamide methanesulfonic acid salt]
RTV x ± SD [1, 5]: 9.60 ± 6.51 | T/C [1, 5]: 103.6% | Body weight before dissection d0 [1, 5]: 18.5 gram | TV x ± SD d0 [1, 5]: 130 ± 58 mm^3 | Body weight before dissection dn [1, 5]: 14.2 gram | TV x ± SD dn [1, 5]: 954 ± 242 mm^3 | CR: complete extinction (complete resolution) of tumor [1, 5]: 0/6 | RTV x ± SD [1, 6]: 3.24 ± 1.65 | T/C [1, 6]: 47.4* % | effect on the growth of K562 tumor [1, 6]: significant inhibition effect on the growth of K562 tumor | Body weight before dissection d0 [1, 6]: 18.8 gram | TV x ± SD d0 [1, 6]: 149 ± 31 mm^3 | Body weight before dissection dn [1, 6]: 15.2 gram | TV x ± SD dn [1, 6]: 455 ± 214 mm^3 | CR: complete extinction (complete resolution) of tumor [1, 6]: 0/6 | IC50 [2]: > 10 µM | selectivity for the target ([3]; HL-60 versus K562 cells): > 125 folds | IC50 ([3]; Homo sapiens, K562, 48 h, read-out: IC50, inhibition of proliferation of leukemia cells): 0.08 µM

Cc1ccc(NC(=O)c2ccc(CN3CCN(C)CC3)cc2)cc1Nc1nccc(-c2cccnc2)n1 [Gleevec, Imatinib, reference compound]
RTV x ± SD [1, 5]: 8.56 ± 7.09 | T/C [1, 5]: 121.0% | Body weight before dissection d0 [1, 5]: 19.3 gram | TV x ± SD d0 [1, 5]: 153 ± 68 mm^3 | Body weight before dissection dn [1, 5]: 15.6 gram | TV x ± SD dn [1, 5]: 971 ± 154 mm^3 | CR: complete extinction (complete resolution) of tumor [1, 5]: 0/6 | mice died ([1]; 150 mg/kg group, Day 18, death considered to be related to the tumor): 1/6 | RTV x ± SD [1, 6]: 8.30 ± 5.65 | T/C [1, 6]: 117.7% | Body weight before dissection d0 [1, 6]: 20.3 gram | TV x ± SD d0 [1, 6]: 127 ± 45 mm^3 | Body weight before dissection dn [1, 6]: 16.3 gram | TV x ± SD dn [1, 6]: 824 ± 170 mm^3 | CR: complete extinction (complete resolution) of tumor [1, 6]: 0/6 | effect on the growth of the tumor ([1]; present protocol: 75 and 150 mg/kg oral gavage once per day 21 days): did not have significant effect on the growth of the tumor | T/C [4, 7]: 34.2* % | Body weight before dissection d0 [4, 7]: 24.1 gram | TV x ± SD d0 [4, 7]: 144 ± 33 mm^3 | Body weight before dissection dn [4, 7]: 20.6 gram | TV x ± SD dn [4, 7]: 501 ± 347 mm^3 | CR: complete resolution [4, 7]: 2/8 | complete resolution (CR) of tumors, mice of the group ([4]; 150 mg/kg each time, oral gavage twice per day, Day 12): 1/8

CS(=O)(=O)O.Cc1ncc(NC(=O)c2ccc(CN3CCN(C)CC3)c(C(F)(F)F)c2)cc1Nc1nccc(-c2cccnc2)n1 [HH-GV-F, 4-((4-methylpiperazin-1-yl)methyl)-N-[6-methyl-5-[[4-(pyrid-3-yl)pyrimidin-2-yl]amino]pyrid-3-yl]-3-(trifluoromethyl)-benzamide methanesulfonic acid salt]
RTV x ± SD [1, 8]: 2.85 ± 3.18 | T/C [1, 8]: 40.4* % | effect on the growth of K562 tumor [1, 8]: significantly inhibited the growth of K562 tumor, but did not cause the tumor extinct | Body weight before dissection d0 [1, 8]: 19.3 gram | TV x ± SD d0 [1, 8]: 119 ± 51 mm^3 | Body weight before dissection dn [1, 8]: 18.8 gram | TV x ± SD dn [1, 8]: 294 ± 255 mm^3 | CR: complete extinction (complete resolution) of tumor [1, 8]: 0/6 | RTV x ± SD [1, 5]: 1.38 ± 3.08 | T/C [1, 5]: 19.6* % | Body weight before dissection d0 [1, 5]: 19.2 gram | TV x ± SD d0 [1, 5]: 127 ± 46 mm^3 | Body weight before dissection dn [1, 5]: 19.3 gram | TV x ± SD dn [1, 5]: 95 ± 199 mm^3 | CR: complete extinction (complete resolution) of tumor [1, 5]: 4/6 | mice in which the tumor was extinct ([1]; Day 9): 1/6 | mice in which the tumor was extinct ([1]; Day 12): 4/6 | mice in which the tumor was extinct ([1]; Day 15): 5/6 | IC50 [2]: ≥ 10 µM | RTV x ± SD [4, 5]: 0 ± 0 | T/C [4, 5]: 0* % | Body weight before dissection d0 [4, 5]: 24.0 gram | TV x ± SD d0 [4, 5]: 168 ± 65 mm^3 | Body weight before dissection dn [4, 5]: 24.7 gram | TV x ± SD dn [4, 5]: 0 ± 0 mm^3 | CR: complete resolution [4, 5]: 7/8 | complete resolution (CR) of tumors, mice of the group ([4]; 75 mg/kg oral gavage once per day, Day 6): 3/8 | complete resolution (CR) of tumors, mice of the group ([4]; 75 mg/kg oral gavage once per day, Day 9): 7/8 | complete resolution (CR) of tumors, mice of the group ([4]; 75 mg/kg oral gavage once per day, Day 12): 8/8 | RTV x ± SD [4, 6]: 0 ± 0 | T/C [4, 6]: 0* % | Body weight before dissection d0 [4, 6]: 24.3 gram | TV x ± SD d0 [4, 6]: 152 ± 37 mm^3 | Body weight before dissection dn [4, 6]: 23.9 gram | TV x ± SD dn [4, 6]: 0 ± 0 mm^3 | CR: complete resolution [4, 6]: 8/8 | complete resolution (CR) of tumors, mice of the group ([4]; 150 mg/kg oral gavage once per day, Day 6): 6/8 | complete resolution (CR) of tumors, mice of the group ([4]; 150 mg/kg oral gavage once per day, Day 9): 8/8 | toxicity ([4]; mouse, in vivo): relatively lower
